The target of this assay is T1, VvHPL1 (VvMTh-HPL1; HPL1) (Vitis vinifera, UniProt F6HID6).
T1 sequence (F6HID6 1-487): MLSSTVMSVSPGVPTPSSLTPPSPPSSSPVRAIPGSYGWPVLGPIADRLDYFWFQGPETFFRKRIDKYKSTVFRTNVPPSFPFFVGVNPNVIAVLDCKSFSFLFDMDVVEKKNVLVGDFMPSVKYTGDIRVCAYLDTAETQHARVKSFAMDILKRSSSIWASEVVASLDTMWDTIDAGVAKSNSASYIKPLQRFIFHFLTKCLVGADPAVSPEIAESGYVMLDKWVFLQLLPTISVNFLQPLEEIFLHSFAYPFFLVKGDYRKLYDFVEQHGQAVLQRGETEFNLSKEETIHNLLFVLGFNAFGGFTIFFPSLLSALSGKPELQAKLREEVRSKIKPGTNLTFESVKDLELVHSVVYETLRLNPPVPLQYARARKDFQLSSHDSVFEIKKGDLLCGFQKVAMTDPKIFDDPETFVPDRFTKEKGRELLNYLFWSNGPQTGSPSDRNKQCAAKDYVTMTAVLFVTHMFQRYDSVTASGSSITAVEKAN
As to the kind of experiment: SBSE TD-GC-MS of volatile products. The assay is classed as biochemical. Particulars: 40 µM substrate, 50 mM sodium phosphate pH 7.0, ambient temperature, 2 h; enzyme partially purified.

Turning to `CCCCC[C@@H](/C=C/C=C\CCCCCCCC(=O)O)OO` [13(S)-hydroperoxy-9(Z), 11(E)-octadecadienoic acid], the “SBSE TD-GC-MS of volatile products” value is “The major product from the conversion of 13-HPOD was hexanal”. The same measure for `CC/C=C\C[C@@H](/C=C/C=C\CCCCCCCC(=O)O)OO` [13(S)-hydroperoxy-9(Z),11(E), 15(Z)-octadecatrienoic acid]: 13-HPOT as substrate yielded cis-3-hexenal and trans-2-hexenal.

These data come from PMC5972561, “Grapevine fatty acid hydroperoxide lyase generates actin-disrupting volatiles and promotes defence-related cell death” (Journal of Experimental Botany, 2018).
